Experimental data published in ChEMBL document CHEMBL3352592, “The antileishmanial activity of isoforms 6- and 8-selective histone deacetylase inhibitors” (Bioorg Med Chem Lett, 2014).
In brackets after ≈: the same amount, converted by molar mass.

Columns and labels:
Leishmania donovani [1] = assay: Antileishmanial activity against axenic amastigote stage of Leishmania donovani after 72 hrs by Alamar blue assay; format: functional, organism-based
Leishmania donovani [2] = assay: Antileishmanial activity against amastigote stage of Leishmania donovani infected in human THP1 cells after 48 hrs by Alamar blue assay; format: functional, organism-based; settings: THP-1, 48 h
THP-1 = assay: Cytotoxicity against human THP1 cells after 48 hrs by Alamar blue assay; format: ADME, cell-based; settings: THP-1, 48 h
Leishmania donovani [3] = assay: Antileishmanial activity against promastigote stage of Leishmania donovani after 72 hrs by Alamar blue assay; format: functional, organism-based
Leishmania donovani [4] = assay: Selectivity ratio of IC50 for axenic amastigote stage of Leishmania donovani to IC50 for amastigote stage of Leishmania donovani infected in human THP1 cells; format: functional, THP-1
[5] = target: T1, Protein deacetylase HDAC6 (Homo sapiens, UniProt Q9UBN7); assay: Inhibition of HDAC6 in human LNCAP cells assessed as tubulin acetylation by Western blot analysis; format: cell-based
T1 sequence (Q9UBN7 whole entry): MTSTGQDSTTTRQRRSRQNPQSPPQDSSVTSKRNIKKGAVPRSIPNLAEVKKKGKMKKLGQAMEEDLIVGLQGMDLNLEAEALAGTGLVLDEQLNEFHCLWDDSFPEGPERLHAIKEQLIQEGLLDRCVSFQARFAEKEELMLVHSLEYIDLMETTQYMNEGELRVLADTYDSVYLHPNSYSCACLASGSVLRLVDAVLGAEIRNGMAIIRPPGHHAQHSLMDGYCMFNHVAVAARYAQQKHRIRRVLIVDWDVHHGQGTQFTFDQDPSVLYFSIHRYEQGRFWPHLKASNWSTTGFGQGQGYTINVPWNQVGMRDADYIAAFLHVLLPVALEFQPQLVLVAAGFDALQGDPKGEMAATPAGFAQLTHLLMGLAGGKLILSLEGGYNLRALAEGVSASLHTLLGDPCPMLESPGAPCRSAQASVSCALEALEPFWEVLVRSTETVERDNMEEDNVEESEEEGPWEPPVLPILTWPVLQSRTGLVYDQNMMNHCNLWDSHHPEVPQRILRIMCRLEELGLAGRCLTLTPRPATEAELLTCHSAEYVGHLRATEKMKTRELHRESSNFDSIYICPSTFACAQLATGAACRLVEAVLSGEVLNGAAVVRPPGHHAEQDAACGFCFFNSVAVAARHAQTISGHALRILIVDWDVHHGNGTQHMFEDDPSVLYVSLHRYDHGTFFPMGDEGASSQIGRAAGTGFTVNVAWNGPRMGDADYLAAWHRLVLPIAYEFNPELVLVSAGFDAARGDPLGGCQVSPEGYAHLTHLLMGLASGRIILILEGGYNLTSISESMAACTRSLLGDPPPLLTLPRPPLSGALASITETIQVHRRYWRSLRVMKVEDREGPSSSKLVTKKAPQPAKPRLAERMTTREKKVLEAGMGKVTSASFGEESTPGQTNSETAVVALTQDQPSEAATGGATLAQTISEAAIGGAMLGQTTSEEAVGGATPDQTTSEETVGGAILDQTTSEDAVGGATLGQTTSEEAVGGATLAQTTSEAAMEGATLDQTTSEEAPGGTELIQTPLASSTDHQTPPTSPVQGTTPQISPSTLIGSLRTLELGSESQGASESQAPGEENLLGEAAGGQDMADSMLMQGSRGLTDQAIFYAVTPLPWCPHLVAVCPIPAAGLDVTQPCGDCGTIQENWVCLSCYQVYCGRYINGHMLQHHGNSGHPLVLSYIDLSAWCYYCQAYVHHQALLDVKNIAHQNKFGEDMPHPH

DU-145 = assay: Cytotoxicity against human DU145 cells; format: functional, cell-based
LNCaP = assay: Cytotoxicity against human LNCAP cells; format: functional, cell-based
[6] = Cytotoxicity against human Jurkat gamma1 cells; format: functional, cell-based
Jurkat = assay: Cytotoxicity against human Jurkat cells; format: functional, cell-based

IC50 [5] | SMILES | IC50 (Leishmania donovani [1]) | IC50 (Leishmania donovani [2]) | IC50 (THP-1) | IC50 (Leishmania donovani [3]) | Ratio IC50 (Leishmania donovani [4]) | IC50 (DU-145) | IC50 (LNCaP) | IC50 [6] | IC50 (Jurkat)
 | COc1ccc(Cn2ccc3ccc(C(=O)NO)cc32)cc1 | > 40 µg/mL | > 10 µg/mL | > 10 µg/mL |  |  |  |  |  | 
 | O=c1c(O)cccn1Cc1ccc(-c2ccccc2)cc1 | 30.9 µg/mL (≈ 111 µM) | 1.7 µg/mL (≈ 6.13 µM) | > 10 µg/mL | 6.8 µg/mL (≈ 24.5 µM) |  |  |  |  | 
 | O=c1c(O)cccn1Cc1ccccc1 | > 40 µg/mL | > 10 µg/mL | > 10 µg/mL | 9.3 µg/mL (≈ 46.2 µM) |  |  |  |  | 
 | N#Cc1cccc(-c2ccc(Cn3cccc(O)c3=O)cc2)c1 | > 40 µg/mL | 2.3 µg/mL (≈ 7.61 µM) | > 10 µg/mL | 9 µg/mL (≈ 29.8 µM) |  |  |  |  | 
 | Cc1ccc(-c2ccc(Cn3cccc(O)c3=O)cc2)cc1 | 29 µg/mL (≈ 99.5 µM) | > 10 µg/mL | > 10 µg/mL | 6 µg/mL (≈ 20.6 µM) |  |  |  |  | 
 | Cc1cccc(-c2ccc(Cn3cccc(O)c3=O)cc2)c1 | 32.5 µg/mL (≈ 112 µM) | > 10 µg/mL | > 10 µg/mL | 12.6 µg/mL (≈ 43.2 µM) |  |  |  |  | 
 | Cc1ccccc1-c1ccc(Cn2cccc(O)c2=O)cc1 | 31.6 µg/mL (≈ 108 µM) | > 10 µg/mL | > 10 µg/mL | 27.6 µg/mL (≈ 94.7 µM) |  |  |  |  | 
 | CN(C)c1ccc(-c2ccc(Cn3cccc(O)c3=O)cc2)cc1 | 4 µg/mL (≈ 12.5 µM) | > 10 µg/mL | > 10 µg/mL | 7.5 µg/mL (≈ 23.4 µM) |  |  |  |  | 
 | CN(C)c1ccc(-c2ccc(Cn3cccc(O)c3=O)cc2)cn1 | > 40 µg/mL | > 10 µg/mL | > 10 µg/mL | 38.9 µg/mL (≈ 121 µM) |  |  |  |  | 
 | N#Cc1ccc(-c2ccc(Cn3cccc(O)c3=O)cc2)cc1 | 5 µg/mL (≈ 16.5 µM) | 3.5 µg/mL (≈ 11.6 µM) | > 10 µg/mL | 4.6 µg/mL (≈ 15.2 µM) |  |  |  |  | 
 | CN(C)c1ccc(-n2cc(Cn3cccc(O)c3=S)nn2)cc1 | 5.3 µg/mL (≈ 16.2 µM) | 1.5 µg/mL (≈ 4.58 µM) | > 10 µg/mL | 1.3 µg/mL (≈ 3.97 µM) |  |  |  |  | 
 | Oc1cccn(Cc2cn(-c3ccccc3)nn2)c1=S | 6.2 µg/mL (≈ 21.8 µM) | 2.7 µg/mL (≈ 9.5 µM) | > 10 µg/mL | 3.2 µg/mL (≈ 11.3 µM) |  |  |  |  | 
 | CN(C)c1ccc(-c2ccc(Cn3cccc(O)c3=S)cc2)cn1 | 6.1 µg/mL (≈ 18.1 µM) | 2.6 µg/mL (≈ 7.7 µM) | > 10 µg/mL | 2.3 µg/mL (≈ 6.82 µM) |  |  |  |  | 
 | CN(C)c1ccc(-c2ccc(Cn3cccc(O)c3=S)cc2)cc1 | 7.4 µg/mL (≈ 22 µM) | 0.3 µg/mL (≈ 0.892 µM) | > 10 µg/mL | 0.2 µg/mL (≈ 0.594 µM) | 5 |  |  |  | 
7.75 µM | Cc1ccccc1-c1ccc(Cn2cccc(O)c2=S)cc1 | 34.4 µg/mL (≈ 112 µM) | 2.1 µg/mL (≈ 6.83 µM) | > 10 µg/mL | 0.3 µg/mL (≈ 0.976 µM) |  | 13.6 µM |  |  | 
 | Cc1cccc(-c2ccc(Cn3cccc(O)c3=S)cc2)c1 | 32.6 µg/mL (≈ 106 µM) | > 10 µg/mL | > 10 µg/mL | 0.3 µg/mL (≈ 0.976 µM) |  |  |  |  | 
 | Cc1ccc(-c2ccc(Cn3cccc(O)c3=S)cc2)cc1 | 31.3 µg/mL (≈ 102 µM) | 3.7 µg/mL (≈ 12 µM) | > 10 µg/mL | 0.3 µg/mL (≈ 0.976 µM) |  |  |  |  | 
 | N#Cc1cccc(-c2ccc(Cn3cccc(O)c3=S)cc2)c1 | 11.2 µg/mL (≈ 35.2 µM) | 3.9 µg/mL (≈ 12.2 µM) | > 10 µg/mL | 0.4 µg/mL (≈ 1.26 µM) |  |  |  |  | 
 | N#Cc1ccc(-c2ccc(Cn3cccc(O)c3=S)cc2)cc1 | 6.1 µg/mL (≈ 19.2 µM) | 0.9 µg/mL (≈ 2.83 µM) | > 10 µg/mL | 0.7 µg/mL (≈ 2.2 µM) | 5 |  |  |  | 
 | Oc1cccn(Cc2ccc(-c3ccccc3)cc2)c1=S | 6.3 µg/mL (≈ 21.5 µM) | 0.6 µg/mL (≈ 2.05 µM) | > 10 µg/mL | 0.1 µg/mL (≈ 0.341 µM) | 5 |  |  |  | 
 | Oc1ccc[nH]c1=S | 30.7 µg/mL (≈ 241 µM) | 6.1 µg/mL (≈ 48 µM) | > 10 µg/mL | 12.7 µg/mL (≈ 99.9 µM) |  |  |  |  | 
 | Oc1cccn(Cc2ccccc2)c1=S | 6.5 µg/mL (≈ 29.9 µM) | 5.8 µg/mL (≈ 26.7 µM) | > 10 µg/mL | 0.1 µg/mL (≈ 0.46 µM) |  |  |  |  | 
 | Oc1cccnc1O | > 40 µg/mL | > 10 µg/mL | > 10 µg/mL | > 40 µg/mL |  |  |  |  | 
 | N#Cc1ccccc1-c1ccc(Cn2cccc(O)c2=O)cc1 | > 40 µg/mL | 1.8 µg/mL (≈ 5.95 µM) | > 10 µg/mL | 26.7 µg/mL (≈ 88.3 µM) |  |  |  |  | 
 | N#Cc1ccccc1-c1ccc(Cn2cccc(O)c2=S)cc1 | 31.7 µg/mL (≈ 99.6 µM) | > 10 µg/mL | > 10 µg/mL | 0.9 µg/mL (≈ 2.83 µM) |  | > 20 µM | 14.7 µM | Not Active | 8.95 µM
 | O=c1c(O)cccn1Cc1cn(-c2ccccc2)nn1 | 18 µg/mL (≈ 67.1 µM) | > 10 µg/mL | > 10 µg/mL | > 40 µg/mL |  |  |  |  | 
 | CN(C)c1ccc(-n2cc(Cn3cccc(O)c3=O)nn2)cc1 | > 40 µg/mL | 2 µg/mL (≈ 6.42 µM) | > 10 µg/mL | 14.5 µg/mL (≈ 46.6 µM) |  |  |  |  | 
 | C[C@@H]1[C@H](O)[C@@H](C)/C=C/C=C/C=C/C=C/C=C/C=C/C=C/[C@H](O[C@@H]2O[C@H](C)[C@@H](O)[C@H](N)[C@@H]2O)C[C@@H]2O[C@](O)(C[C@@H](O)C[C@@H](O)[C@H](O)CC[C@@H](O)C[C@@H](O)CC(=O)O[C@H]1C)C[C@H](O)[C@H]2C(=O)O [AMPHOTERICIN B] | 1.6 µg/mL (≈ 1.73 µM) | 0.2 µg/mL (≈ 0.216 µM) | > 10 µg/mL |  |  |  |  |  | 
 | N=C(N)c1ccc(OCCCCCOc2ccc(C(=N)N)cc2)cc1 [PENTAMIDINE] | 8.9 µg/mL (≈ 26.1 µM) | 0.4 µg/mL (≈ 1.17 µM) | > 10 µg/mL | 0.6 µg/mL (≈ 1.76 µM) |  |  |  |  | 
 | CN1CCc2c(c3ccccc3n2Cc2ccc(C(=O)NO)cc2)C1 [TUBASTATIN A] | 8.8 µg/mL (≈ 26.2 µM) |  | > 10 µg/mL | 4.4 µg/mL (≈ 13.1 µM) |  |  |  |  | 
